# pKd: −log10 of the molar value. Where a SMILES comes first, the peptide text is derived from it. Bridges are numbered along the chain shown (N, C = ends). [ ]: non-standard residue; d: D form. The star is where a group is joined. hPhe(3-Cl-4-CF3) = N[C@@H](CCc1ccc(C(F)(F)F)c(Cl)c1)C(=O)O; NPrPhe(4-CF3) = CCCN[C@@H](Cc1ccc(C(F)(F)F)cc1)C(=O)O; NMeGly(cPent) = CN[C@H](C(=O)O)C1CCCC1; Pro(4,4-F2) = O=C(O)[C@@H]1CC(F)(F)CN1; Hyp = O=C(O)[C@@H]1C[C@@H](O)CN1; NMeD = CN[C@@H](CC(=O)O)C(=O)O; NMeL = CN[C@@H](CC(C)C)C(=O)O; Morpholide = C1CN(*)CCO1; Ac5c = NC1(C(=O)O)CCCC1; Aze = O=C(O)[C@@H]1CCN1; Ac4c = NC1(C(=O)O)CCC1; NEtG = CCNCC(=O)O; Sar = CNCC(=O)O
# Columns and labels:
# [1] = target: GDP-bound NRAS wild-type protein (Homo sapiens, UniProt P01111); test: Binding to NRAS by surface plasmon resonance (SPR), Single Cycle Kinetics; details: SPR, GDP-bound NRAS wild-type protein vs GDP-bound KRAS wild-type protein
# GDP-bound NRAS wild-type protein, sequence (P01111 whole entry): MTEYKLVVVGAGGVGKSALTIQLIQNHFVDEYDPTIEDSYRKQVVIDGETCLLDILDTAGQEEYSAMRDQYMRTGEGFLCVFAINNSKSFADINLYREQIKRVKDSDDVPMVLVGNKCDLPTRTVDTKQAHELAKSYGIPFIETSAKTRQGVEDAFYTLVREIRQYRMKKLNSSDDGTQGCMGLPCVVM
# [2] = target: GDP-bound KRAS wild-type protein (Homo sapiens, UniProt P01116); test: Binding to KRAS by surface plasmon resonance (SPR), Single Cycle Kinetics; details: SPR Single Cycle Kinetics, GDP-bound KRAS wild-type protein, 1:1 binding model; read-out: KRAS KD
# GDP-bound KRAS wild-type protein, sequence (P01116 whole entry): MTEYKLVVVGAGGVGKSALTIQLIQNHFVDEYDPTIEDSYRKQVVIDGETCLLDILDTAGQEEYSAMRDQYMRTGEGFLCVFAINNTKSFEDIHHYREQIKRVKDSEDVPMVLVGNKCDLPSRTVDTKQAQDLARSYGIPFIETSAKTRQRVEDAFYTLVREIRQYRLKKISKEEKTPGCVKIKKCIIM
# [3] = target: GDP-bound HRAS wild-type protein (Homo sapiens, UniProt P01112); test: Binding to HRAS by surface plasmon resonance (SPR), Single Cycle Kinetics; details: SPR, GDP-bound HRAS wild-type protein vs GDP-bound KRAS wild-type protein
# GDP-bound HRAS wild-type protein, sequence (P01112 whole entry): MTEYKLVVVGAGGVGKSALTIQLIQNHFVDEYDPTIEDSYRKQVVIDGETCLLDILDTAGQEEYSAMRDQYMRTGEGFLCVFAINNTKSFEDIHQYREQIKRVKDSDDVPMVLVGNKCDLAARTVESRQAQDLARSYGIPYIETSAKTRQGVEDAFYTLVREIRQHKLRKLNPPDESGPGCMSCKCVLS
compound,measurement,setting,value
CCCN1C(=O)CN(C)C(=O)CN(C)C(=O)[C@H]([C@@H](C)CC)NC(=O)[C@H](CC(C)C)N(C)C(=O)C[C@@H](C(=O)N2CCOCC2)N(C)C(=O)[C@H](C2CCCC2)N(C)C(=O)C2(CCC2)NC(=O)[C@@H]2C[C@@H](OCC)CN2C(=O)[C@H](CCc2ccc(C(F)(F)F)c(Cl)c2)NC(=O)CN(C)C(=O)[C@@H]1Cc1ccc(C(F)(F)F)cc1 [PP0392] ([NMeL]I[Sar][Sar][NPrPhe(4-CF3)][Sar][hPhe(3-Cl-4-CF3)][Hyp](Et)[Ac4c][NMeGly(cPent)][NMeD]-Morpholide; lactam N-11),NRAS/KRAS (ratio of KD value for NRAS to KD value for KRAS),[1],B (a compound having 3 or more and less than 10 is denoted as B)
same,pKd,[2],10.17
same,HRAS/KRAS (ratio of KD value for HRAS to KD value for KRAS),[3],C (A compound having a KD ratio of 0.1 or more and less than 3 is denoted as C)
CCCN1C(=O)CN(C)C(=O)CNC(=O)[C@H]([C@@H](C)CC)NC(=O)[C@H](CC(C)C)N(C)C(=O)C[C@@H](C(=O)N2CCOCC2)N(C)C(=O)[C@H](C2CCCC2)N(C)C(=O)C2(CCC2)NC(=O)[C@@H]2CCCN2C(=O)[C@H](CCc2ccc(C(F)(F)F)c(Cl)c2)NC(=O)CN(C)C(=O)[C@@H]1Cc1ccc(C(F)(F)F)cc1 [PP0393] ([NMeL]IG[Sar][NPrPhe(4-CF3)][Sar][hPhe(3-Cl-4-CF3)]P[Ac4c][NMeGly(cPent)][NMeD]-Morpholide; lactam N-11),NRAS/KRAS (ratio of KD value for NRAS to KD value for KRAS),[1],B (a compound having 3 or more and less than 10 is denoted as B)
same,pKd,[2],9.96
same,HRAS/KRAS (ratio of KD value for HRAS to KD value for KRAS),[3],B (a compound having 3 or more and less than 10 is denoted as B)
"CCCN1C(=O)CN(C)C(=O)CNC(=O)[C@H]([C@@H](C)CC)NC(=O)[C@H](CC(C)C)N(C)C(=O)C[C@@H](C(=O)N2CCOCC2)N(C)C(=O)[C@H](C2CCCC2)N(C)C(=O)C2(CCCC2)NC(=O)[C@@H]2CC(F)(F)CN2C(=O)[C@H](CCc2ccc(C(F)(F)F)c(Cl)c2)NC(=O)CN(C)C(=O)[C@@H]1Cc1ccc(C(F)(F)F)cc1 [PP0394] ([NMeL]IG[Sar][NPrPhe(4-CF3)][Sar][hPhe(3-Cl-4-CF3)][Pro(4,4-F2)][Ac5c][NMeGly(cPent)][NMeD]-Morpholide; lactam N-11)",NRAS/KRAS (ratio of KD value for NRAS to KD value for KRAS),[1],C (A compound having a KD ratio of 0.1 or more and less than 3 is denoted as C)
same,pKd,[2],9.62
same,HRAS/KRAS (ratio of KD value for HRAS to KD value for KRAS),[3],C (A compound having a KD ratio of 0.1 or more and less than 3 is denoted as C)
"CCCN1C(=O)CN(C)C(=O)CNC(=O)[C@H]([C@@H](C)CC)NC(=O)[C@H](CC(C)C)N(C)C(=O)C[C@@H](C(=O)N2CCOCC2)N(C)C(=O)[C@H](C2CCCC2)N(C)C(=O)C2(CCC2)NC(=O)[C@@H]2CC(F)(F)CN2C(=O)[C@H](CCc2ccc(C(F)(F)F)c(Cl)c2)NC(=O)CN(C)C(=O)[C@@H]1Cc1ccc(C(F)(F)F)cc1 [PP0395] ([NMeL]IG[Sar][NPrPhe(4-CF3)][Sar][hPhe(3-Cl-4-CF3)][Pro(4,4-F2)][Ac4c][NMeGly(cPent)][NMeD]-Morpholide; lactam N-11)",NRAS/KRAS (ratio of KD value for NRAS to KD value for KRAS),[1],B (a compound having 3 or more and less than 10 is denoted as B)
same,pKd,[2],10.17
same,HRAS/KRAS (ratio of KD value for HRAS to KD value for KRAS),[3],C (A compound having a KD ratio of 0.1 or more and less than 3 is denoted as C)
CCCN1C(=O)CN(C)C(=O)CNC(=O)[C@H]([C@@H](C)CC)NC(=O)[C@H](CC(C)C)N(C)C(=O)C[C@@H](C(=O)N2CCOCC2)N(C)C(=O)[C@H](C2CCCC2)N(C)C(=O)C2(CCCC2)NC(=O)[C@@H]2C[C@@H](OCC)CN2C(=O)[C@H](CCc2ccc(C(F)(F)F)c(Cl)c2)NC(=O)CN(C)C(=O)[C@@H]1Cc1ccc(C(F)(F)F)cc1 [PP0396] ([NMeL]IG[Sar][NPrPhe(4-CF3)][Sar][hPhe(3-Cl-4-CF3)][Hyp](Et)[Ac5c][NMeGly(cPent)][NMeD]-Morpholide; lactam N-11),NRAS/KRAS (ratio of KD value for NRAS to KD value for KRAS),[1],B (a compound having 3 or more and less than 10 is denoted as B)
same,pKd,[2],9.89
same,HRAS/KRAS (ratio of KD value for HRAS to KD value for KRAS),[3],C (A compound having a KD ratio of 0.1 or more and less than 3 is denoted as C)
CCCN1C(=O)CN(C)C(=O)CNC(=O)[C@H]([C@@H](C)CC)NC(=O)[C@H](CC(C)C)N(C)C(=O)C[C@@H](C(=O)N2CCOCC2)N(C)C(=O)[C@H](C2CCCC2)N(C)C(=O)C2(CCC2)NC(=O)[C@@H]2C[C@@H](OCC)CN2C(=O)[C@H](CCc2ccc(C(F)(F)F)c(Cl)c2)NC(=O)CN(C)C(=O)[C@@H]1Cc1ccc(C(F)(F)F)cc1 [PP0397] ([NMeL]IG[Sar][NPrPhe(4-CF3)][Sar][hPhe(3-Cl-4-CF3)][Hyp](Et)[Ac4c][NMeGly(cPent)][NMeD]-Morpholide; lactam N-11),NRAS/KRAS (ratio of KD value for NRAS to KD value for KRAS),[1],C (A compound having a KD ratio of 0.1 or more and less than 3 is denoted as C)
same,pKd,[2],9.92
same,HRAS/KRAS (ratio of KD value for HRAS to KD value for KRAS),[3],C (A compound having a KD ratio of 0.1 or more and less than 3 is denoted as C)
"CCCN1C(=O)CN(C)C(=O)CN(CC)C(=O)[C@H]([C@@H](C)CC)NC(=O)[C@H](CC(C)C)N(C)C(=O)C[C@@H](C(=O)N2CCOCC2)N(C)C(=O)[C@H](C2CCCC2)N(C)C(=O)C2(CCCC2)NC(=O)[C@@H]2CC(F)(F)CN2C(=O)[C@H](CCc2ccc(C(F)(F)F)c(Cl)c2)NC(=O)CN(C)C(=O)[C@@H]1Cc1ccc(C(F)(F)F)cc1 [PP0399] ([NMeL]I[NEtG][Sar][NPrPhe(4-CF3)][Sar][hPhe(3-Cl-4-CF3)][Pro(4,4-F2)][Ac5c][NMeGly(cPent)][NMeD]-Morpholide; lactam N-11)",NRAS/KRAS (ratio of KD value for NRAS to KD value for KRAS),[1],B (a compound having 3 or more and less than 10 is denoted as B)
same,pKd,[2],9.48
same,HRAS/KRAS (ratio of KD value for HRAS to KD value for KRAS),[3],C (A compound having a KD ratio of 0.1 or more and less than 3 is denoted as C)
"CCCN1C(=O)CN(C)C(=O)CN(CC)C(=O)[C@H]([C@@H](C)CC)NC(=O)[C@H](CC(C)C)N(C)C(=O)C[C@@H](C(=O)N2CCOCC2)N(C)C(=O)[C@H](C2CCCC2)N(C)C(=O)C2(CCC2)NC(=O)[C@@H]2CC(F)(F)CN2C(=O)[C@H](CCc2ccc(C(F)(F)F)c(Cl)c2)NC(=O)CN(C)C(=O)[C@@H]1Cc1ccc(C(F)(F)F)cc1 [PP0400] ([NMeL]I[NEtG][Sar][NPrPhe(4-CF3)][Sar][hPhe(3-Cl-4-CF3)][Pro(4,4-F2)][Ac4c][NMeGly(cPent)][NMeD]-Morpholide; lactam N-11)",NRAS/KRAS (ratio of KD value for NRAS to KD value for KRAS),[1],B (a compound having 3 or more and less than 10 is denoted as B)
same,pKd,[2],9.77
same,HRAS/KRAS (ratio of KD value for HRAS to KD value for KRAS),[3],B (a compound having 3 or more and less than 10 is denoted as B)
CCCN1C(=O)CN(C)C(=O)CN(CC)C(=O)[C@H]([C@@H](C)CC)NC(=O)[C@H](CC(C)C)N(C)C(=O)C[C@@H](C(=O)N2CCOCC2)N(C)C(=O)[C@H](C2CCCC2)N(C)C(=O)C2(CCC2)NC(=O)[C@@H]2C[C@@H](OCC)CN2C(=O)[C@H](CCc2ccc(C(F)(F)F)c(Cl)c2)NC(=O)CN(C)C(=O)[C@@H]1Cc1ccc(C(F)(F)F)cc1 [PP0401] ([NMeL]I[NEtG][Sar][NPrPhe(4-CF3)][Sar][hPhe(3-Cl-4-CF3)][Hyp](Et)[Ac4c][NMeGly(cPent)][NMeD]-Morpholide; lactam N-11),NRAS/KRAS (ratio of KD value for NRAS to KD value for KRAS),[1],B (a compound having 3 or more and less than 10 is denoted as B)
same,pKd,[2],9.82
same,HRAS/KRAS (ratio of KD value for HRAS to KD value for KRAS),[3],B (a compound having 3 or more and less than 10 is denoted as B)
"CCCN1C(=O)CN(C)C(=O)[C@@H]2CCN2C(=O)[C@H]([C@@H](C)CC)NC(=O)[C@H](CC(C)C)N(C)C(=O)C[C@@H](C(=O)N2CCOCC2)N(C)C(=O)[C@H](C2CCCC2)N(C)C(=O)C2(CCCC2)NC(=O)[C@@H]2CC(F)(F)CN2C(=O)[C@H](CCc2ccc(C(F)(F)F)c(Cl)c2)NC(=O)CN(C)C(=O)[C@@H]1Cc1ccc(C(F)(F)F)cc1 [PP0403] ([NMeL]I[Aze][Sar][NPrPhe(4-CF3)][Sar][hPhe(3-Cl-4-CF3)][Pro(4,4-F2)][Ac5c][NMeGly(cPent)][NMeD]-Morpholide; lactam N-11)",NRAS/KRAS (ratio of KD value for NRAS to KD value for KRAS),[1],B (a compound having 3 or more and less than 10 is denoted as B)
same,pKd,[2],9.08
same,HRAS/KRAS (ratio of KD value for HRAS to KD value for KRAS),[3],B (a compound having 3 or more and less than 10 is denoted as B)
CCCN1C(=O)CN(C)C(=O)[C@@H]2CCN2C(=O)[C@H]([C@@H](C)CC)NC(=O)[C@H](CC(C)C)N(C)C(=O)C[C@@H](C(=O)N2CCOCC2)N(C)C(=O)[C@H](C2CCCC2)N(C)C(=O)C2(CCC2)NC(=O)[C@@H]2C[C@@H](OCC)CN2C(=O)[C@H](CCc2ccc(C(F)(F)F)c(Cl)c2)NC(=O)CN(C)C(=O)[C@@H]1Cc1ccc(C(F)(F)F)cc1 [PP0405] ([NMeL]I[Aze][Sar][NPrPhe(4-CF3)][Sar][hPhe(3-Cl-4-CF3)][Hyp](Et)[Ac4c][NMeGly(cPent)][NMeD]-Morpholide; lactam N-11),NRAS/KRAS (ratio of KD value for NRAS to KD value for KRAS),[1],B (a compound having 3 or more and less than 10 is denoted as B)
same,pKd,[2],9.51
same,HRAS/KRAS (ratio of KD value for HRAS to KD value for KRAS),[3],C (A compound having a KD ratio of 0.1 or more and less than 3 is denoted as C)
